Data from patent US11407788B2, “Prostate-specific membrane antigen (PSMA) targeting peptides” (THE CURATORS OF THE UNIVERSITY OF MISSOURI, priority 2016, dated 2022).

How the values were obtained:
[1] = system: PSMA-positive prostate cancer C4-2 cell line; assay: Apparent Kd of FAM-labeled peptides by flow cytometry in C4-2 cells; format: cell-based
LNCaP cells = assay: Competitive inhibition of peptides and their corresponding phages; conditions: for competitive inhibition of peptide to its corresponding phage: peptides at 100 μM
Description: Competitive binding inhibition between selected phages and their encoded peptides was examined in this study. […] The bound phages were recovered and titered as described above.
It was first evaluated whether these phages bind to LNCaP cells via specific interaction with their encoding peptides. LNCaP cells were pre-incubated with the encoding peptides, followed by washing and incubation with the corresponding phages. The bound phages were then eluted and titered.

[2] = system: PSMA-positive LNCaP cells; assay: Apparent Kd of FAM-labeled peptides by flow cytometry in LNCaP cells; format: cell-based; conditions: 4° C., 1 h
PSMA = PSMA (Homo sapiens, UniProt Q04609); conditions: Aggarwal et al. 2006; read-out: IC50 of inhibition of PSMA enzymatic activity; cited from earlier work
Sequence of PSMA (Q04609 whole entry): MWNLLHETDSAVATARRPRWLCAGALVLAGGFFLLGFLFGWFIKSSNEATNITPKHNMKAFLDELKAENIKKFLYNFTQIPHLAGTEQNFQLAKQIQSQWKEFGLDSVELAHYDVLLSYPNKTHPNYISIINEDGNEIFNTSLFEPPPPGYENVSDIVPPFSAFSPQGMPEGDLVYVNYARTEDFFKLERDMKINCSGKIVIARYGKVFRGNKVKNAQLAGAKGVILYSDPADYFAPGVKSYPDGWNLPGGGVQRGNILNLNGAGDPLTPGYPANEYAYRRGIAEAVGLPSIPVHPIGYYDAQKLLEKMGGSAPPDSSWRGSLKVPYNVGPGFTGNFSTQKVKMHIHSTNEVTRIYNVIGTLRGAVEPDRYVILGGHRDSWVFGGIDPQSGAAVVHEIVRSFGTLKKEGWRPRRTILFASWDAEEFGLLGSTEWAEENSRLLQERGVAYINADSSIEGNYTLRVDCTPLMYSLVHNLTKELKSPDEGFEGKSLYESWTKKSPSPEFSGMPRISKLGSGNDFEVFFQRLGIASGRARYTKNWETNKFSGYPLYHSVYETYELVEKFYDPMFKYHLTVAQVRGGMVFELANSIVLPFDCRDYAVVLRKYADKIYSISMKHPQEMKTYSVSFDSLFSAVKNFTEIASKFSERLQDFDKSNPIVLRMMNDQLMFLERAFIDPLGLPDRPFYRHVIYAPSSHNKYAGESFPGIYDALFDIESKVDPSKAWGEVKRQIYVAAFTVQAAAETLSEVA

Row | Sequence | competitive inhibition of peptide to its corresponding phage (LNCaP cells) | further results
1 | HSDNHYRPADKL | negligible | affinity to C4-2 cells compared to LNCaP cells [1]: less affinity
2 | KYLAYPDSVHIW | – | Kd [2]: 14.4 µM
3 | NRPDSAQFWLHH | negligible | competitive inhibition of peptide to its corresponding phage at various concentrations (LNCaP cells; series of concentrations): does not affect the binding
4 | QPGHAILAQHPT | negligible | –
5 | SMAGEQISWALI | negligible | –
6 | TGHLYPTRMEIQ | relatively weaker competitive inhibition | affinity to C4-2 cells compared to LNCaP cells [1]: less affinity
7 | WQPDTAHHWATL | – | Kd [2]: 23.6 µM; IC50 (PSMA): 23 µM
8 | YPTDWLWHGHNK | negligible | –
9 | YVNSHSILGYTG | relatively weaker competitive inhibition | –
